Measurements from PubChem BioAssay (NCI).
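The compound was tested at five concentrations on cells cultured in 96-well plates, with a 48-hour exposure period. At the GI50, growth is halved. Definition used: TGI = concentration required for complete inhibition of growth.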

Experiments:
Assay in all cases: inhibition of tumour cell growth, NCI panel, 48 h
[1] = system: 786-0 renal
[2] = system: A498 renal
[3] = system: A549 NSCLC
[4] = system: ACHN renal
[5] = system: BT-549 breast
[6] = system: CAKI-1 renal
[7] = system: CCRF-CEM leukemia
[8] = system: COLO 205 colon
[9] = system: DU-145 prostate
[10] = system: EKVX NSCLC
[11] = system: HCC-2998 colon
[12] = system: HCT-116 colon
[13] = system: HCT-15 colon
[14] = system: HL-60(TB) leukemia
[15] = system: HOP-62 NSCLC
[16] = system: HOP-92 NSCLC
[17] = system: HS 578T breast
[18] = system: HT29 colon
[19] = system: IGROV1 ovarian
[20] = system: K-562 leukemia
[21] = system: KM12 colon
[22] = system: LOX IMVI melanoma
[23] = system: M14 melanoma
[24] = system: MALME-3M melanoma
[25] = system: MCF7 breast
[26] = system: MDA-MB-231 breast
[27] = system: MDA-MB-435
[28] = system: MOLT-4 leukemia
[29] = system: NCI-H226 lung
[30] = system: NCI-H23 lung
[31] = system: NCI-H460 lung
[32] = system: NCI-H522 lung
[33] = system: NCI/ADR-RES ovarian
[34] = system: OVCAR-3 ovarian
[35] = system: OVCAR-4 ovarian
[36] = system: OVCAR-5 ovarian
[37] = system: OVCAR-8 ovarian
[38] = system: PC-3 prostate
[39] = system: RPMI-8226 leukemia
[40] = system: SF-268 CNS
[41] = system: SF-295 CNS
[42] = system: SF-539 CNS
[43] = system: SK-MEL-2 melanoma
[44] = system: SK-MEL-28 melanoma
[45] = system: SK-MEL-5 melanoma
[46] = system: SK-OV-3 ovarian
[47] = system: SN12C renal
[48] = system: SNB-19 CNS
[49] = system: SNB-75 CNS
[50] = system: SR leukemia
[51] = system: SW-620 colon
[52] = system: T-47D breast
[53] = system: TK-10 renal
[54] = system: U251 CNS
[55] = system: UACC-257 melanoma
[56] = system: UACC-62 melanoma
[57] = system: UO-31 renal
[58] = system: RXF 393 renal

Compound: CC(Nc1ncnc2ccc(-c3cnc(N)nc3)cc12)c1ccccc1 (stereo not drawn)
- GI50 [1]: 5.33 µM
- TGI [1]: > 100 µM
- GI50 [2]: 1.42 µM
- TGI [2]: 6.52 µM
- GI50 [3]: 6.48 µM
- TGI [3]: > 100 µM
- GI50 [4]: 3.02 µM
- TGI [4]: 18.6 µM
- GI50 [5]: 2.22 µM
- TGI [5]: 12 µM
- GI50 [6]: 3.17 µM
- TGI [6]: 17.8 µM
- GI50 [7]: 7.7 µM
- TGI [7]: > 100 µM
- GI50 [8]: 13.5 µM
- TGI [8]: 47.5 µM
- GI50 [9]: 4.34 µM
- TGI [9]: > 100 µM
- GI50 [10]: 1.97 µM
- TGI [10]: 10.4 µM
- GI50 [11]: 8.05 µM
- TGI [11]: 50.8 µM
- GI50 [12]: 8.01 µM
- TGI [12]: 24.3 µM
- GI50 [13]: 4.12 µM
- TGI [13]: 54.6 µM
- GI50 [14]: 14.8 µM
- TGI [14]: 43.7 µM
- GI50 [15]: 5.76 µM
- TGI [15]: > 100 µM
- GI50 [16]: 1.04 µM
- TGI [16]: 5.62 µM
- GI50 [17]: 2.15 µM
- TGI [17]: 8.64 µM
- GI50 [18]: 8.41 µM
- TGI [18]: 46.4 µM
- GI50 [19]: 1.95 µM
- TGI [19]: 8.26 µM
- GI50 [20]: 6.32 µM
- TGI [20]: > 100 µM
- GI50 [21]: 7.91 µM
- TGI [21]: 36.3 µM
- GI50 [22]: 4.26 µM
- TGI [22]: 16.9 µM
- GI50 [23]: 6.76 µM
- TGI [23]: 31.6 µM
- GI50 [24]: 3.03 µM
- TGI [24]: 19.5 µM
- GI50 [25]: 4.1 µM
- TGI [25]: 24.4 µM
- GI50 [26]: 3.38 µM
- TGI [26]: 15.5 µM
- GI50 [27]: 11.1 µM
- TGI [27]: 42 µM
- GI50 [28]: 5.37 µM
- TGI [28]: > 100 µM
- GI50 [29]: 3.57 µM
- TGI [29]: 22 µM
- GI50 [30]: 9.2 µM
- TGI [30]: 37.4 µM
- GI50 [31]: 4.79 µM
- TGI [31]: 31.1 µM
- GI50 [32]: 4.9 µM
- TGI [32]: > 100 µM
- GI50 [33]: 9.42 µM
- TGI [33]: 47.3 µM
- GI50 [34]: 4.59 µM
- TGI [34]: 20.1 µM
- GI50 [35]: 4.55 µM
- TGI [35]: 43.4 µM
- GI50 [36]: 3.4 µM
- TGI [36]: 37.5 µM
- GI50 [37]: 10.8 µM
- TGI [37]: 30.2 µM
- GI50 [38]: 4.05 µM
- TGI [38]: > 100 µM
- GI50 [39]: 4.66 µM
- TGI [39]: 42.9 µM
- GI50 [40]: 5.26 µM
- TGI [40]: 34.5 µM
- GI50 [41]: 4.5 µM
- TGI [41]: 27 µM
- GI50 [42]: 6.2 µM
- TGI [42]: 19.2 µM
- GI50 [43]: 20.4 µM
- TGI [43]: > 100 µM
- GI50 [44]: 9.05 µM
- TGI [44]: 53.1 µM
- GI50 [45]: 7.28 µM
- TGI [45]: 20.8 µM
- GI50 [46]: 6.67 µM
- TGI [46]: > 100 µM
- GI50 [47]: 2.9 µM
- TGI [47]: 15.7 µM
- GI50 [48]: 9.29 µM
- TGI [48]: 44.1 µM
- GI50 [49]: 2.76 µM
- TGI [49]: 23.1 µM
- GI50 [50]: 4.08 µM
- TGI [50]: > 100 µM
- GI50 [51]: 15.2 µM
- TGI [51]: 51.7 µM
- GI50 [52]: 1.91 µM
- TGI [52]: 46.4 µM
- GI50 [53]: 1.59 µM
- TGI [53]: 14.2 µM
- GI50 [54]: 6.92 µM
- TGI [54]: 60 µM
- GI50 [55]: 23.9 µM
- TGI [55]: > 100 µM
- GI50 [56]: 4.48 µM
- TGI [56]: 18.2 µM
- GI50 [57]: 1.29 µM
- TGI [57]: 16.4 µM

Compound: Cc1[nH]nc2ccc(-c3nc4cnc(N5CCN(C)CC5)cn4c3Nc3ccc(F)cc3Br)cc12
- GI50 [2]: 1.32 µM
- TGI [2]: 2.78 µM
- GI50 [3]: 2.81 µM
- TGI [3]: 20.5 µM
- GI50 [4]: 1.72 µM
- TGI [4]: 3.39 µM
- GI50 [6]: 2.23 µM
- TGI [6]: 6.51 µM
- GI50 [7]: 2.25 µM
- TGI [7]: 7.08 µM
- GI50 [9]: 1.99 µM
- TGI [9]: 3.93 µM
- GI50 [10]: 1.87 µM
- TGI [10]: 5.39 µM
- GI50 [11]: 2.11 µM
- TGI [11]: 5.18 µM
- GI50 [13]: 1.73 µM
- TGI [13]: 3.38 µM
- GI50 [14]: 1.79 µM
- TGI [14]: 4.81 µM
- GI50 [15]: 2.23 µM
- TGI [15]: 6.69 µM
- GI50 [16]: 1.59 µM
- TGI [16]: 3.67 µM
- GI50 [17]: 2.44 µM
- TGI [17]: 6.43 µM
- GI50 [18]: 2.24 µM
- TGI [18]: 5.08 µM
- GI50 [19]: 1.69 µM
- TGI [19]: 3.46 µM
- GI50 [20]: 1.24 µM
- TGI [20]: 7.56 µM
- GI50 [21]: 3.67 µM
- TGI [21]: 16.4 µM
- GI50 [24]: 1.51 µM
- TGI [24]: 3.14 µM
- GI50 [25]: 1.48 µM
- TGI [25]: 2.9 µM
- GI50 [26]: 1.84 µM
- TGI [26]: 4.02 µM
- GI50 [27]: 1.87 µM
- TGI [27]: 3.83 µM
- GI50 [28]: 2.85 µM
- TGI [28]: 9.43 µM
- GI50 [30]: 1.83 µM
- TGI [30]: 3.6 µM
- GI50 [31]: 2.03 µM
- TGI [31]: 4.35 µM
- GI50 [32]: 2.01 µM
- TGI [32]: 4.72 µM
- GI50 [36]: 2.38 µM
- TGI [36]: 7.94 µM
- GI50 [37]: 2.29 µM
- TGI [37]: 6.31 µM
- GI50 [38]: 2.47 µM
- TGI [38]: 10.2 µM
- GI50 [39]: 2.16 µM
- TGI [39]: 5.07 µM
- GI50 [58]: 1.57 µM
- TGI [58]: 3.2 µM
- GI50 [40]: 1.89 µM
- TGI [40]: 4.11 µM
- GI50 [41]: 1.61 µM
- TGI [41]: 3.29 µM
- GI50 [42]: 1.79 µM
- TGI [42]: 3.61 µM
- GI50 [43]: 2.84 µM
- TGI [43]: 7.9 µM
- GI50 [44]: 1.69 µM
- TGI [44]: 3.2 µM
- GI50 [45]: 1.74 µM
- TGI [45]: 3.25 µM
- GI50 [46]: 2.08 µM
- TGI [46]: 5.09 µM
- GI50 [47]: 1.65 µM
- TGI [47]: 3.34 µM
- GI50 [48]: 2.87 µM
- TGI [48]: 10.4 µM
- GI50 [49]: 1.22 µM
- TGI [49]: 2.57 µM
- GI50 [50]: 0.303 µM
- TGI [50]: > 100 µM
- GI50 [51]: 2.9 µM
- TGI [51]: 11 µM
- GI50 [52]: 1.95 µM
- TGI [52]: 5.07 µM
- GI50 [53]: 2.82 µM
- TGI [53]: 8.83 µM
- GI50 [54]: 2.43 µM
- TGI [54]: 8.04 µM
- GI50 [56]: 1.64 µM
- TGI [56]: 3.22 µM
- GI50 [57]: 1.34 µM
- TGI [57]: 2.93 µM
